Calls of active or inactive are those of the source. The calls are words filed in the database; no cut-off is given here.
How the values were obtained:
[1] = target: Metabotropic glutamate receptor 1 (Rattus norvegicus, UniProt P23385); experiment: Negative allosteric modulation of rat mGluR1 expressed in HEK293 cells assessed as inhibition of glutamate induced calcium mobilization by calcium mobilization assay; format: functional, cell-based
[2] = target: Metabotropic glutamate receptor 5 (Rattus norvegicus, UniProt P31424); experiment: Negative allosteric modulation of rat mGluR5 expressed in HEK293 cells assessed as inhibition of glutamate induced calcium mobilization by calcium mobilization assay; format: functional, cell-based
Metabotropic glutamate receptor 5 (Rattus norvegicus, UniProt P31424), sequence (P31424 whole entry): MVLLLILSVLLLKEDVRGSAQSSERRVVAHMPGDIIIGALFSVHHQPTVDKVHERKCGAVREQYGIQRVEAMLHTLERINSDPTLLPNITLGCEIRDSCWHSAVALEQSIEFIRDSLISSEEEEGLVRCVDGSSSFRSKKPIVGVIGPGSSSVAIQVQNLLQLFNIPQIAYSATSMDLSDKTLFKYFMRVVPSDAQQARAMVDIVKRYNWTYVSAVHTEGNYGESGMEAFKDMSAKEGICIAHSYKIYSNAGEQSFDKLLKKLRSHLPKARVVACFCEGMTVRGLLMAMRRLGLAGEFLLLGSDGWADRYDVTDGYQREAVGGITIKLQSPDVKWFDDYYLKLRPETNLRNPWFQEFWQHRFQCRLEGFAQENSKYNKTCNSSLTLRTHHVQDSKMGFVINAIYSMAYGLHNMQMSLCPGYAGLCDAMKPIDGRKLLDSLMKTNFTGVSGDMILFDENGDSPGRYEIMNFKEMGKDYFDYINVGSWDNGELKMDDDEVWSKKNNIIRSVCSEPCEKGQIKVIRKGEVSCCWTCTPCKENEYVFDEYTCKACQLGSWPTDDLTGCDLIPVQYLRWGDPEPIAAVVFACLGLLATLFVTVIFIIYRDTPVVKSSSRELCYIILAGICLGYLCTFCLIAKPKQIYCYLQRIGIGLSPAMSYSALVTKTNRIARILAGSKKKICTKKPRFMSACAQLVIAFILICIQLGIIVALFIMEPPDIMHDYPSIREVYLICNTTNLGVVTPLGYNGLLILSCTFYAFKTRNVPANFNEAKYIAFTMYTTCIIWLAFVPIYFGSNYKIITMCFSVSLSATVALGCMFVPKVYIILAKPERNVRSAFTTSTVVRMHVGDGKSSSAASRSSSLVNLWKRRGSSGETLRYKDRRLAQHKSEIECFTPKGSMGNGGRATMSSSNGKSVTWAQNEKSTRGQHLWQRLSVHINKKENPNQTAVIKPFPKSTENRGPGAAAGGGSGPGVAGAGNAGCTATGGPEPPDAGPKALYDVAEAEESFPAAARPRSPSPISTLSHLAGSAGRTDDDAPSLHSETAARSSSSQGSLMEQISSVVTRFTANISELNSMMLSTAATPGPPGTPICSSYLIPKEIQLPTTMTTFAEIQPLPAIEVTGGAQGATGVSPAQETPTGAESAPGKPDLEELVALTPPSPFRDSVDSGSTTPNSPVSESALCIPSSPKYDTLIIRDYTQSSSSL

[3] = target: Metabotropic glutamate receptor 1 (Rattus norvegicus) (UniProt P23385); experiment: Negative allosteric modulation of rat mGluR1 expressed in HEK293 cells assessed as calcium mobilization at 30 uM by calcium mobilization assay relative to 100 uM glutamate; format: functional, cell-based
Metabotropic glutamate receptor 1 (Rattus norvegicus), sequence (P23385 19-1199 limits assumed): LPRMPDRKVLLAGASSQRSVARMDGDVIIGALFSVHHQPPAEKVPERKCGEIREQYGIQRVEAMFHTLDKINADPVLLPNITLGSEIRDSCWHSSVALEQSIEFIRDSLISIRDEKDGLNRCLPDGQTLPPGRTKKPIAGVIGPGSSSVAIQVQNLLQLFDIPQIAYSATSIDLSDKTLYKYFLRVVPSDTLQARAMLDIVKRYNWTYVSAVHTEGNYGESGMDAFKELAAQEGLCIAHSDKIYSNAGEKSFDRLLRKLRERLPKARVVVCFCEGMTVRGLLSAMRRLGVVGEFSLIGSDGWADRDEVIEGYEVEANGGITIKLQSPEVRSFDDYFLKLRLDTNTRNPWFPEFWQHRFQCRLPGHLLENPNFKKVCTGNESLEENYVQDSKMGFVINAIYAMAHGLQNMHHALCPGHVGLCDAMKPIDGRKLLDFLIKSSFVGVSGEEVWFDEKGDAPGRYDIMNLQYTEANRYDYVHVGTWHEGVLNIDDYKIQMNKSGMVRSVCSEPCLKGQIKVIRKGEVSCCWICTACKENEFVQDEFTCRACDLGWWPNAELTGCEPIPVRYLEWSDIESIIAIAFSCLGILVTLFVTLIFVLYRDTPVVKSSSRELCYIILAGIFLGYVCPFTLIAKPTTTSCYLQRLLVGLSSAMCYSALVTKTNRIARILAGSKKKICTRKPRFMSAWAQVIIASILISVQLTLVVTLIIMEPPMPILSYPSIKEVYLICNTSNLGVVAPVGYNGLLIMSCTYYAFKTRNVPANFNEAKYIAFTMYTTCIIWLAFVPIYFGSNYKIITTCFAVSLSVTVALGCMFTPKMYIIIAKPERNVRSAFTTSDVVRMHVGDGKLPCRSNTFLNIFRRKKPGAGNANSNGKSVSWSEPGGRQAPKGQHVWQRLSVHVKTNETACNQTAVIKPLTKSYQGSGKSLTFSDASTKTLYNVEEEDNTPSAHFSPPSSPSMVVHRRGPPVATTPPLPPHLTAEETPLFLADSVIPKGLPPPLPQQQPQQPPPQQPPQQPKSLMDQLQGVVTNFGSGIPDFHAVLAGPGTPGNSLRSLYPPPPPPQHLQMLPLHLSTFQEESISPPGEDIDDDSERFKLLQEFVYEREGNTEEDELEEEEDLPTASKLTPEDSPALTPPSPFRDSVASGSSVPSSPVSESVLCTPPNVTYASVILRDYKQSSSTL

[4] = target: Metabotropic glutamate receptor 5 (Rattus norvegicus) (UniProt P31424); experiment: Negative allosteric modulation of rat mGluR5 expressed in HEK293 cells assessed as calcium mobilization at 30 uM by calcium mobilization assay relative to 100 uM glutamate; format: functional, cell-based
Metabotropic glutamate receptor 5 (Rattus norvegicus), sequence (P31424 21-1203 limits assumed): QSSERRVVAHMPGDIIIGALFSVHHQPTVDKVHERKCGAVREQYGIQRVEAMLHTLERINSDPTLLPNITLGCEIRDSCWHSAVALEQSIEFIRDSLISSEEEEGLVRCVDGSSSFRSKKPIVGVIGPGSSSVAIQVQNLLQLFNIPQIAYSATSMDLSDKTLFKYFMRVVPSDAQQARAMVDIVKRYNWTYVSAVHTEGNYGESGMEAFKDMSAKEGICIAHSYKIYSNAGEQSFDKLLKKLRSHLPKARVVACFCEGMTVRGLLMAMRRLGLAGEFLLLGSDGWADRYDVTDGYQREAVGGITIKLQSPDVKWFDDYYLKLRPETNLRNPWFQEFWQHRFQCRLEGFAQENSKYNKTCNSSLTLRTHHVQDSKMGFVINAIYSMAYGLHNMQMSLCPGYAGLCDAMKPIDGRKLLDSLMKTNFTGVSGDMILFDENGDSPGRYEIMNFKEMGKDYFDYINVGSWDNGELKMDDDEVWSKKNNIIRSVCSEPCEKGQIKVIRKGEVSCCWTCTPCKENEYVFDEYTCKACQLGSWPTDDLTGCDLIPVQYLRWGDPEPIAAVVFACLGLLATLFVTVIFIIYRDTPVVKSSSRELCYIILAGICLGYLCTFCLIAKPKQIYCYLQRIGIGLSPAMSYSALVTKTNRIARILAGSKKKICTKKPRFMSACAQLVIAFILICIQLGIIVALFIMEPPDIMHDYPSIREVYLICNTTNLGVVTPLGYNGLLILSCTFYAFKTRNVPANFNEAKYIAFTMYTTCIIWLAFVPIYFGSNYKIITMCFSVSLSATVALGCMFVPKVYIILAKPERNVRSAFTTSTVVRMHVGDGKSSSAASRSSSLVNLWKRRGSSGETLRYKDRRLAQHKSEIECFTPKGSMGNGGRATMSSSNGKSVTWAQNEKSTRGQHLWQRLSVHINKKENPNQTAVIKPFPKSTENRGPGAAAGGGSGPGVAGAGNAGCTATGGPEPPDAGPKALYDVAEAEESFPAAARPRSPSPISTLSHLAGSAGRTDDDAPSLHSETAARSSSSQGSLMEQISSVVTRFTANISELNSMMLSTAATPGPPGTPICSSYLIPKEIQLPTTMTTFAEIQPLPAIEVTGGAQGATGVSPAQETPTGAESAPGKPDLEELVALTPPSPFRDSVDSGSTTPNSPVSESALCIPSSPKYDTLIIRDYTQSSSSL

[5] = target: Metabotropic glutamate receptor 1 (Homo sapiens, UniProt Q13255); experiment: Negative allosteric modulation activity at recombinant human mGluR1a expressed in CHO cells assessed as inhibition of L-glutamate-induced intracellular Ca2+ mobilization; format: functional, cell-based
[6] = target: Metabotropic glutamate receptor 5 (Homo sapiens, UniProt P41594); experiment: Negative allosteric modulation activity at recombinant human mGluR5a expressed in CHO cells assessed as inhibition of L-glutamate-induced intracellular Ca2+ mobilization; format: functional, cell-based
[7] = target: TRAF2 and NCK-interacting protein kinase (Homo sapiens) (UniProt Q9UKE5); experiment: Inhibition of human TNIK at 10 uM
[8] = target: Metabotropic glutamate receptor 7 (Rattus norvegicus) (UniProt P35400); experiment: Activity at rat mGluR7 expressed in HEK293-GIRK cells assessed as effect on glutamate-induced response by thallium flux assay; format: cell-based
[9] = target: Metabotropic glutamate receptor 3 (Rattus norvegicus) (UniProt P31422); experiment: Activity at rat mGluR3 expressed in HEK293-GIRK cells assessed as effect on glutamate-induced response by thallium flux assay; format: cell-based
[10] = target: SRSF protein kinase 1 (Homo sapiens) (UniProt Q96SB4); experiment: Inhibition of human SRPK1 at 10 uM
[11] = target: Metabotropic glutamate receptor 6 (Rattus norvegicus) (UniProt P35349); experiment: Activity at rat mGluR6 expressed in HEK293-GIRK cells assessed as effect on glutamate-induced response by thallium flux assay; format: cell-based
[12] = Tmax in CD-1 mouse at 30 mg/kg, ip; format: ADME, organism-based; details: in vivo
[13] = target: Metabotropic glutamate receptor 8 (Rattus norvegicus) (UniProt P70579); experiment: Activity at rat mGluR8 expressed in HEK293-GIRK cells assessed as effect on glutamate-induced response by thallium flux assay; format: cell-based
[14] = Fraction unbound in mouse plasma by equilibrium dialysis assay; format: ADME, cell-free
[15] = Tmax in Sprague-Dawley rat at 10 mg/kg, ip; format: ADME, organism-based; details: in vivo
[16] = target: Casein kinase I isoform alpha (Homo sapiens) (UniProt P48729); experiment: Inhibition of human CK1alpha1 at 10 uM
[17] = Fraction unbound in mouse brain by equilibrium dialysis assay; format: ADME, tissue-based
Plasma = experiment: Fraction unbound in rat plasma by equilibrium dialysis assay; format: ADME, cell-free
[18] = target: Serine/threonine-protein kinase 17A (Homo sapiens) (UniProt Q9UEE5); experiment: Inhibition of human DRAK1 at 10 uM
[19] = target: SRSF protein kinase 2 (Homo sapiens) (UniProt P78362); experiment: Inhibition of human SRPK2 at 10 uM
[20] = target: 5-hydroxytryptamine receptor 2B (Homo sapiens) (UniProt P41595); experiment: Inhibition of recombinant human 5-HT2B receptor expressed in CHOK1 cells at 10 uM by radioligand binding assay; format: cell-based; details: CHO-K1
Cytochrome P450 1A2 = Cytochrome P450 1A2 (Homo sapiens, UniProt P05177); experiment: Inhibition of CYP1A2 in human liver microsomes in presence of NADPH; format: ADME
Cytochrome P450 2D6 = Cytochrome P450 2D6 (Homo sapiens, UniProt P10635); experiment: Inhibition of CYP2D6 in human liver microsomes in presence of NADPH; format: ADME
[21] = Unbound brain to plasma ratio in rat at 0.2 mg/kg measured at 15 mins post dose; format: ADME, organism-based; details: 0.25 h
[22] = target: Metabotropic glutamate receptor 4 (Rattus norvegicus) (UniProt P31423); experiment: Activity at rat mGluR4 expressed in HEK293-GIRK cells assessed as effect on glutamate-induced response by thallium flux assay; format: cell-based
[23] = target: Adenosine receptor A1 (Homo sapiens) (UniProt P30542); experiment: Inhibition of recombinant human Adenosine A1 receptor expressed in CHO cells at 10 uM by radioligand binding assay; format: cell-based
Adenosine receptor A1 (Homo sapiens), sequence (P30542 whole entry): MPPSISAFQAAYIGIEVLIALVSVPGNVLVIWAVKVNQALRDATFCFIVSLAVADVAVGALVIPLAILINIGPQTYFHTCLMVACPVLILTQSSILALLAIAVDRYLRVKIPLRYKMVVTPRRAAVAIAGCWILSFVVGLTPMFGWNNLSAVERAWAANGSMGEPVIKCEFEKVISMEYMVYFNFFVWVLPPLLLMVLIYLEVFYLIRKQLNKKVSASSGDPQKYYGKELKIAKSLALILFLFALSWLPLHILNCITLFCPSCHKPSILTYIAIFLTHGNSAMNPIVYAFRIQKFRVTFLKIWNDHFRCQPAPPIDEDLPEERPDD

[24] = target: Sodium-dependent noradrenaline transporter (Homo sapiens) (UniProt P23975); experiment: Inhibition of recombinant human norepinephrine transporter expressed in MDCK cells at 10 uM by radioligand binding assay; format: cell-based
[25] = Fraction unbound in rat brain by equilibrium dialysis assay; format: ADME, tissue-based
[26] = target: Metabotropic glutamate receptor 2 (Rattus norvegicus) (UniProt P31421); experiment: Activity at rat mGluR2 expressed in HEK293-GIRK cells assessed as effect on glutamate-induced response by thallium flux assay; format: cell-based
[27] = Half life in Sprague-Dawley rat at 0.2 mg/kg, iv; format: ADME, organism-based; details: in vivo
[28] = Cmax in CD-1 mouse at 30 mg/kg, ip; format: ADME, organism-based; parameters: dose 30 mg/kg, route intraperitoneal; details: in vivo
[29] = target: Casein kinase I isoform epsilon (Homo sapiens) (UniProt P49674); experiment: Inhibition of human CK1epsilon at 10 uM
Cytochrome P450 2C9 = Cytochrome P450 2C9 (Homo sapiens, UniProt P11712); experiment: Inhibition of CYP2C9 in human liver microsomes in presence of NADPH; format: ADME
Rattus norvegicus = species: Rattus norvegicus; experiment: Inhibition of rat brain sodium channel, site 2 at 10 uM by radioligand binding assay
[30] = target: Casein kinase I isoform delta (Homo sapiens) (UniProt P48730); experiment: Inhibition of human CK1delta at 10 uM
[31] = Ratio of drug level in brain to plasma of CD-1 mouse at 30 mg/kg measured at 30 mins post dose; format: ADME, organism-based; details: 0.5 h
Cytochrome P450 3A4 = Cytochrome P450 3A4 (Homo sapiens, UniProt P08684); experiment: Inhibition of CYP3A4 in human liver microsomes in presence of NADPH; format: ADME
[32] = Cmax in Sprague-Dawley rat at 10 mg/kg, ip; format: ADME, organism-based; parameters: dose 10 mg/kg, route intraperitoneal; details: in vivo
[33] = AUC in CD-1 mouse at 30 mg/kg, ip; format: ADME, organism-based; details: in vivo
[34] = target: Adenosine receptor A2a (Homo sapiens) (UniProt P29274); experiment: Inhibition of recombinant human Adenosine A2A receptor expressed in HEK293 cells at 10 uM by radioligand binding assay; format: cell-based
[35] = target: Casein kinase I isoform gamma-2 (Homo sapiens) (UniProt P78368); experiment: Inhibition of human CK1gamma2 at 10 uM
[36] = Plasma clearance in Sprague-Dawley rat at 0.2 mg/kg, iv; format: ADME, organism-based
[37] = AUC in Sprague-Dawley rat at 10 mg/kg, ip; format: ADME, organism-based; details: in vivo
[38] = target: Adenosine receptor A3 (Homo sapiens) (UniProt P0DMS8); experiment: Inhibition of recombinant human Adenosine A3 receptor expressed in CHOK1 cells at 10 uM by radioligand binding assay; details: CHO-K1
[39] = Ratio of drug level in brain to plasma of rat at 0.2 mg/kg measured at 15 mins post dose; format: ADME, organism-based; details: 0.25 h
[40] = Unbound brain to plasma ratio in CD-1 mouse at 30 mg/kg, ip measured at 30 mins post dose; format: ADME, organism-based; details: 0.5 h

Metabotropic glutamate receptor 1 (Rattus norvegicus, UniProt P23385), sequence (P23385 whole entry): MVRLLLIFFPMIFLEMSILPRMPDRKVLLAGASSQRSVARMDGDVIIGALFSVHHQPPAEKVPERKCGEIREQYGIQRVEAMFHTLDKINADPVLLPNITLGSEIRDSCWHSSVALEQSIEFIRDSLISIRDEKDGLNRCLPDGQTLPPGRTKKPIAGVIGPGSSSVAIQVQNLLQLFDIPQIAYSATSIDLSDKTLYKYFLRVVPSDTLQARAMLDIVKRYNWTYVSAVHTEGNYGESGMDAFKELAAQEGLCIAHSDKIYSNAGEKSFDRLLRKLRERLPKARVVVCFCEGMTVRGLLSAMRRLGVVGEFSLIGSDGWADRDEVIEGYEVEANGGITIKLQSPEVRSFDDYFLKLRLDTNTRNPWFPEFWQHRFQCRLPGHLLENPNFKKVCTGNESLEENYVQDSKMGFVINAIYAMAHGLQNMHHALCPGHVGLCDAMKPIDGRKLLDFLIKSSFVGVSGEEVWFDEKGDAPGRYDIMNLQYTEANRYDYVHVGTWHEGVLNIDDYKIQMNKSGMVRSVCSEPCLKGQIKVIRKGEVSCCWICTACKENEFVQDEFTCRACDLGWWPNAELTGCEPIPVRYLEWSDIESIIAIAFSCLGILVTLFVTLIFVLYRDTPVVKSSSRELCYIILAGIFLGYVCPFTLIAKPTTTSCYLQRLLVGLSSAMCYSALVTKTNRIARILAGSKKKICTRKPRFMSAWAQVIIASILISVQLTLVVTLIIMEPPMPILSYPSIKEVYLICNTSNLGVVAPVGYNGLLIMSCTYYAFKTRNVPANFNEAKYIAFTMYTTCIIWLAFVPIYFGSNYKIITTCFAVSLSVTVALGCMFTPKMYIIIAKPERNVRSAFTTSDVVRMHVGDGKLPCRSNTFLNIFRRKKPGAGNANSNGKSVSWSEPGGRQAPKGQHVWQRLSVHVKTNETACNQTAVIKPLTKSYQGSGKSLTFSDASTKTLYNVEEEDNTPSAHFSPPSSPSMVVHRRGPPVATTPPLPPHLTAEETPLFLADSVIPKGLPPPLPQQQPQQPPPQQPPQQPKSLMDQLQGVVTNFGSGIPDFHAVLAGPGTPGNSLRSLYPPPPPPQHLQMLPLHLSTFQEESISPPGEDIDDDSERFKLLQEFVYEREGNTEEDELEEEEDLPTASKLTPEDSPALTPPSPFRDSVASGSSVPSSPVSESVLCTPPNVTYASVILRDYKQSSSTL

C[C@@H](Nc1ncnc2c1nn1ccccc21)C1CC1
IC50 [1]: > 10 µM
IC50 ([2]; read-out: IC50): > 30 µM
IC50 ([2]; read-out: pIC50 (converted)): > 31.6 µM
%max [3]: 71.6%

c1ccc2c(c1)CC(Nc1ncnc3c1nn1ccccc31)C2
%max [4]: 17.2%
IC50 [1]: 0.247 µM
%max [3]: 2.1%

Cc1nc(N[C@@H]2C[C@@H]3C[C@H]([C@H]2C)C3(C)C)c2nn3ccccc3c2n1
IC50 [1]: 0.759 µM
%max [3]: 2.4%

c1ccn2nc3c(NC4CCCCCCC4)ncnc3c2c1
%max [4]: 1.3%
IC50 [1]: 0.094 µM
IC50 ([2]; read-out: IC50): 3.29 µM
%max [3]: 1.9%

C[C@@H]1[C@@H](Nc2ncnc3c2nn2ccccc32)C[C@H]2C[C@@H]1C2(C)C
%max [4]: 2.3%
IC50 [1]: 0.233 µM
IC50 ([2]; read-out: IC50): 2.09 µM
%max [3]: 3.1%

CCC(C)(C)Nc1ncnc2c1nn1ccccc21
IC50 [1]: > 10 µM
IC50 ([2]; read-out: IC50): > 30 µM
IC50 ([2]; read-out: pIC50 (converted)): > 31.6 µM
%max [3]: 12.6%

Cc1nc(N[C@H]2C[C@H]3CC[C@@]2(C)C3(C)C)c2nn3ccccc3c2n1
IC50 ([2]; read-out: IC50): > 30 µM
IC50 ([2]; read-out: pIC50 (converted)): > 31.6 µM
%max [3]: 7.1%

C[C@@H](Nc1ncnc2c1nn1ccccc21)C1CCCCC1
%max [4]: 18.4%
pIC50 ([2]; hek293): < 5
IC50 ([2]; read-out: IC50): > 10 µM
%max [3]: 2.4%

OCCSc1nc2c(c(NC3Cc4ccccc4C3)n1)CCCC2
IC50 [5]: 0.028 µM
IC50 [6]: > 9.1 µM

CNc1nc(N[C@H]2CC[C@H](C)CC2)c2nn3ccccc3c2n1
IC50 [1]: > 30 µM
IC50 ([2]; read-out: IC50): > 30 µM
IC50 ([2]; read-out: pIC50 (converted)): > 31.6 µM

CC1(C)CCC(Nc2ncnc3c2nn2ccccc32)CC1
%max [4]: 1.6%
inhibition [7]: 58.8%
Activity [8]: inactive
Activity [9]: inactive
inhibition [10]: 79.4%
Activity [11]: inactive
Tmax [12]: 20 min
Activity [13]: inactive
IC50 [1]: 0.069 µM
IC50 ([2]; read-out: IC50): 0.129 µM
Fu [14]: 0.025
Tmax [15]: 15 min
inhibition [16]: 65.3%
%max [3]: 2.9%
fraction unbound [17]: 0.01
Fu (Plasma): 0.037
inhibition [18]: 52.9%
inhibition [19]: 75.2%
inhibition [20]: 65%
IC50 (Cytochrome P450 1A2): 9.6 µM
IC50 (Cytochrome P450 2D6): > 30 µM
K(p,uu,brain) [21]: 1.1
Activity [22]: inactive
inhibition [23]: 92%
inhibition [24]: 65%
fraction unbound [25]: 0.008
Activity [26]: inactive
half-life [27]: 34 min
Cmax [28]: 3000 nM
inhibition [29]: 75.9%
IC50 (Cytochrome P450 2C9): > 30 µM
inhibition (Rattus norvegicus): 55%
inhibition [30]: 85.1%
Kp [31]: 3.3
IC50 (Cytochrome P450 3A4): > 30 µM
Cmax [32]: 2300 nM
AUC [33]: 2.86 µM·h
inhibition [34]: 94%
inhibition [35]: 50.4%
clearance [36]: 98 mL/min/kg
AUC [37]: 3.23 µM·h
inhibition [38]: 63%
Kp [39]: 5.3
K(p,uu,brain) [40]: 1.3

FC1(F)CCC(Nc2ncnc3c2nn2ccccc32)CC1
IC50 [1]: > 10 µM
IC50 ([2]; read-out: IC50): > 30 µM
IC50 ([2]; read-out: pIC50 (converted)): > 31.6 µM
%max [3]: 39%

CN(C)c1nc(N[C@H]2CC[C@H](C)CC2)c2nn3ccccc3c2n1
IC50 [1]: > 30 µM
IC50 ([2]; read-out: IC50): > 30 µM
IC50 ([2]; read-out: pIC50 (converted)): > 31.6 µM

OC12CC3CC(C1)CC(Nc1ncnc4c1nn1ccccc41)(C3)C2
IC50 [1]: 0.484 µM
IC50 ([2]; read-out: IC50): > 30 µM
IC50 ([2]; read-out: pIC50 (converted)): > 31.6 µM
%max [3]: 2.4%

C[C@@H]1[C@H]2C[C@@H](C[C@H]1Nc1ncnc3c1nn1ccccc31)C2(C)C
%max [4]: 9%
IC50 [1]: 0.152 µM
IC50 ([2]; hek293, read-out: IC50): > 10 µM
IC50 ([2]; read-out: pIC50 (converted)): > 10 µM
%max [3]: 2.7%

c1ccn2nc3c(N[C@H]4C[C@@H]5CC[C@H]4C5)ncnc3c2c1
%max [4]: 9.9%
IC50 [1]: 0.232 µM
IC50 ([2]; hek293, read-out: IC50): > 10 µM
IC50 ([2]; read-out: pIC50 (converted)): > 10 µM
%max [3]: 2.5%
